The target in one experiment is T1, CB1 receptor (Rattus norvegicus, UniProt P20272).
T1 construct: membranes were prepared from rat forebrain membranes; from tissue; host or cells: rat forebrain membranes
Briefly: CB1 receptor binding assay, [3H]CP-55,940 displacement, rat forebrain membranes. The protocol:
The inventive analogs were tested for CB2 receptor binding affinity and for CB1 receptor affinity (to determine selectivity for the CB2 receptor). As used herein, “binding affinity” is represented by the IC50 value which is the concentration of an analog required to occupy the 50% of the total number (Bmax) of the receptors. The lower the IC50 value the higher the binding affinity. […] For the CB1 receptor binding studies, membranes were prepared from rat forebrain membranes according to the procedure of P. R. Dodd et al, A Rapid Method for Preparing Synaptosomes: Comparison with Alternative Procedures, Brain Res., 107-118 (1981). The binding of the novel analogues to the CB1 cannabinold receptor was assessed as described in W. A. Devane et al, Determination and Characterization of a Cannabinoid Receptor in a Rat Brain, Mol. Pharmacol., 34, 605-613 (1988) and A. Charalambous et al, 5′-azido Δ^8− THC: A Novel Photoaffinity Label for the Cannabinoid Receptor, J. Med. Chem., 35, 3076-3079 (1992) with the following changes. The above articles are incorporated by reference herein.
Membranes, previously frozen at −80° C., were thawed on ice. To the stirred suspension was added three volumes of TME (25 mM Tris-HCl buffer, 5 mM MgCl2 and 1 mM EDTA) at a pH 7.4. The suspension was incubated at 4° C. for 30 min. At the end of the incubation, the membranes were pelleted and washed three times with TME.
(§1) The treated membranes were subsequently used in the binding assay described below. Approximately 30 μg of membranes were incubated in silanized 96-well microtiter plate with TME containing 0.1% essentially fatty acid-free bovine serum albumin (BSA), 0.8 nM [^3H] CP-55,940, and various concentrations of test materials in a final volume of […]. The assays were incubated for 1 hour at 30° C. and then immediately filtered using Packard Filtermate 196 harvester and Whatman GF/C filterplates and washed with wash buffer (TME) containing 0.5% BSA. Radioactivity was detected using MicroScint 20 scintillation cocktail added directly to the dried filterplates, and the filterplates were counted using a Packard Instruments Top-Count. Nonspecific binding was assessed using 100 nM CP-55,940. Data collected from three independent experiments performed with duplicate determinations was normalized between 100% and 0% specific binding for [^3H] CP-55,940, determined using buffer and 100 nM CP-55,940. The normalized data was analyzed using a 4-parameter nonlinear logistic equation to yield IC50 values. Data from at least two indeperident experiments performed in duplicate was used to calculate IC50 values which were converted to Ki values using the assumptions of Cheng et al, Relationship Between the Inhibition Constant (Ki) and the concentratiori of Inhibitor which causes 50% Inhibition (IC50) of an Enzymatic Reaction, Biochem. Pharmacol., 22, 3099-3102, (1973), which is incorporated by reference herein.

The target in the next experiment is T2, CB2 receptor (Mus musculus, UniProt P47936).
T2 construct: membranes were prepared from frozen mouse spleen; from tissue; host or cells: frozen mouse spleen membranes
T2 sequence (P47936 whole entry): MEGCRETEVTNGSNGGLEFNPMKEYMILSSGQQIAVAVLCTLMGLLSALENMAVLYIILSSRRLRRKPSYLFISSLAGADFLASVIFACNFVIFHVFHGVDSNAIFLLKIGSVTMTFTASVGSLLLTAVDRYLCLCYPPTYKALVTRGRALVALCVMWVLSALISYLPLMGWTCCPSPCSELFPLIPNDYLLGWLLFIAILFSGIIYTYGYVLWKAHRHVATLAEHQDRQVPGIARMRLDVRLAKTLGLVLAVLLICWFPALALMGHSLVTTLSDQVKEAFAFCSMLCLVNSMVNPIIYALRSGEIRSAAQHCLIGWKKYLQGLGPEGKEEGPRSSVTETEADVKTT
The experiment can be described thus: CB2 receptor binding assay, [3H]CP-55,940 displacement, mouse spleen membranes. How it is done:
as §1
For the CB2 receptor binding studies, membranes were prepared from frozen mouse spleen essentially according to the procedure of P. R. Dodd et al, A Rapid Method for Preparing Synaptosomes: Comparison with Alternative Procedures, Brain Res., 226, 107-118 (1981) which is incorporated by reference herein. Silanized centrifuge tubes were used throughout to minimize receptor loss due to adsorption. The CB2 binding assay was conducted in the same manner as for the CB1 binding assay. The binding affinities (Ki) were also expressed in nanomoles (nM).

Experiment [1] has as its system rats. The experiment can be described thus: Locomotor activity, rate of beam crossings in photocell apparatus. The experiment is classed as in vivo, rat. The note with it: intravenous; for effect on locomotor activity: early after administration, FIG. 3 and 4. The protocol: Rats were injected with varied doses of either some of the inventive compounds or with WIN 55212-2, a known CB1/CB2 receptor agonist. The injected compounds were solubilized in DMSO:40% cyclodextrin (1:10) and intravenously administered.
Locomotor activity was assessed by measuring the rate of beam crossings by rats in a photocell apparatus according to the procedure of M. Cosenza et al, Locomotor Activity and Occupancy of Brain Cannabinoid CB1 Receptors by the Antagonist/Inverse Agonist AM281, Synapse, 38, 477-482 (2000).

Experiment [2] concerns rats. The experiment can be described thus: Peripheral antinociception, paw withdrawal latency to thermal stimulus. In kind it is in vivo, rat. The following applies: ipsilateral i.paw injection, measured 25 min after injection, FIG. 1 and 2. The protocol:
Using rats as test subjects, varied doses of some of the inventive compounds were injected subcutaneously in the dorsal surface of the paw (i.paw, 50 μl). Measurements were taken 25 min after i.paw injection. Assessment of antinociceptive action was made by evaluating the response latency to removal of the paw from a focused source of thermal stimulation, as described by T. P. Malan Jr., CB2 Cannabinoid Receptor-mediated Peridpheral Antinociception, Pain, 93, 239-245 (2001), the content of which is incorporated by reference herein. Rats were allowed to acclimate within Plexiglas enclosures on a clear glass plate maintained at 30° C. A radiant heat source (a high-intensity projector lamp) was focused onto the plantar surface of the hindpaw. Activation of the heat source activated a timer, which stopped when withdrawal of the paw was detected with a photodetector. A maximal cut-off of 40 seconds (s) was utilized to prevent tissue damage.
Antinociception is expressed as the percent of the maximum possible effect (% MPE), using the formula: % MPE=(WL-CL)/(CO-CL), where WL is the withdrawal latency obtained experimentally, CL is the control (baseline) value before drug administration, and CO is the cut-off value (40 s). Dose-response curves were generated. Significance was defined as P<0.05.

Setting [3] is: rat forebrain membranes, 0.8 nM [3H]CP-55,940, read-out: Ki (nM) CB1.

Usually Ki stands for a dissociation constant, usually derived from enzyme kinetics or from competition with a known ligand.

Read-outs that look alike come from different tables or passages of the source.

T1 sequence (P20272 whole entry): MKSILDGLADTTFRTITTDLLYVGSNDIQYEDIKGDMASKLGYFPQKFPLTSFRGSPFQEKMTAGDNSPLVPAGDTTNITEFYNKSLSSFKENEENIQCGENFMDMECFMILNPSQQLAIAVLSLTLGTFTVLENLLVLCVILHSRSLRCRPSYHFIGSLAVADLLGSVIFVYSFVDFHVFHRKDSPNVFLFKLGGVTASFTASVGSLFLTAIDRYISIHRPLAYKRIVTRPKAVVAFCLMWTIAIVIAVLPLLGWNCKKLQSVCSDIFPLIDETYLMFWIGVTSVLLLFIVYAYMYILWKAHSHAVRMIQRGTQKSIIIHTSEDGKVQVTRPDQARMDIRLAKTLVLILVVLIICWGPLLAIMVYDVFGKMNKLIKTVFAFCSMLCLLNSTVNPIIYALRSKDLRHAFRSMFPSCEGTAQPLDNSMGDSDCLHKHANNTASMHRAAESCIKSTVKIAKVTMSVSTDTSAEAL

Consider `O=C(Nc1cccc2ccccc12)c1nn(CCCCI)c2ccccc12` [compound 8], for which the Ki on CB1 receptor was found to be 13.7 nM; at CB2 receptor it was 27 nM.
As for `Cc1c(C(=O)c2cccc3ccccc23)c2cccc3c2n1[C@H](CN1CCOCC1)CO3` [WIN 55212-2, reference compound], in the experiment on rats [1], the “cannabinoid-like behaviour in the locomotor assay” value is “produced the typical cannabinoid-like catalepsy and inhibition of locomotion”; the “effect on locomotor activity” value is given as “significantly reduced locomotor activity”.
`O=C(NC12CC3CC(CC(C3)C1)C2)c1nn(CCCCCl)c2ccccc12` [compound 4]: the Ki was determined as 1.65 nM at CB1 receptor and 1.34 nM at CB2 receptor.
For `O=C(Nc1cccc2ccccc12)c1nn(CCCCCl)c2ccccc12` [compound 7] the same measures were 0.268 nM and 0.135 nM.
For `O=C(NC12CC3CC(CC(C3)C1)C2)c1nn(CCN2CCOCC2)c2ccccc12` [compound 1] the same measures were 6.84 nM and 0.147 nM.
Take `CN(C)CCCn1nc(C(=O)Nc2cccc3ccccc23)c2ccccc21` [compound 9]: the Ki on CB1 receptor (setting [3]) came to 451 nM; at CB2 receptor it was 235 nM.
For `CN(C)CCCn1nc(C(=O)NC23CC4CC(CC(C4)C2)C3)c2ccccc21` [compound 6] the same measures were 443 nM and 20.9 nM.
For the compound `CN1CCCCC1Cn1nc(C(=O)NC23CC4CC(CC(C4)C2)C3)c2ccccc21` (stereo not drawn) [compound 2], the inhibition constant Ki was 47.5 nM on CB1 receptor and 8.74 nM on CB2 receptor.
`N#CCCCCn1nc(C(=O)NC23CC4CC(CC(C4)C2)C3)c2ccccc21` [compound 3]: the Ki was determined as 2.28 nM on CB1 receptor and 0.309 nM on CB2 receptor. In addition, in the experiment with rats [2], the “antinociception to a thermal stimulus applied to the hindpaw” value is “produced dose-dependent antinociception”. Further, the “cannabinoid-like behaviour in the locomotor assay” value in the experiment on rats [1] was “produced the typical cannabinoid-like catalepsy and inhibition of locomotion”. Moreover, in the experiment on rats [1], the “effect on locomotor activity” value is “significantly reduced locomotor activity”.
In the case of `O=C(NN1CCCCC1)c1nn(-c2ccccc2)c2cc(Br)ccc12` [compound 11], the Ki at CB1 receptor (setting [3]) amounted to 1850 nM; at CB2 receptor it was 84.7 nM.
For the compound `CN1CCCCC1Cn1nc(C(=O)Nc2cccc3ccccc23)c2ccccc21` (stereo not drawn) [compound 10], the values for the Ki at CB1 receptor and on CB2 receptor were 15 nM and 8.04 nM, respectively.
Regarding `O=C(NC12CC3CC(CC(C3)C1)C2)c1nn(CCCCI)c2ccccc12` [compound 5], the Ki at CB1 receptor was determined as 0.596 nM; at CB2 receptor, 0.164 nM.

Source of the values: patent US7666867B2, “Heteroindanes: a new class of potent cannabimimetic ligands” (University of Connecticut, priority 2001, dated 2010).
